Measurements taken from PMC7331992, “Targeting the oral plaque microbiome with immobilized anti-biofilm peptides at tooth-restoration interfaces” (PLoS ONE, 2020).
Square brackets hold non-standard residues; d marks the D form. Ends that are not written are not given here. Peptide text beside a SMILES is read from it.

What was measured:
[1] = tested on: supragingival dental plaque samples from 10 high caries risk subjects; format: cell-based, plaque bacteria (human subjects); conditions: 24 h
Description: After a written informed consent was obtained from all participants, supragingival dental plaque samples from 10 high caries risk subjects were collected from either the occlusal or buccal margin of existing restorations at the University of Minnesota (Institutional Review Board #1403M48865). Each subject was examined for a formal caries risk assessment (CAMBRA) which classifies the caries risk status into 3 categories (low, moderate, high) considering a wide-range of biological predisposing factors and the protective factors, 8 factors each, in addition to the comprehensive clinical examination. All subjects had experienced active carious lesions and were still at high risk for future caries; otherwise, they were in good general health and had not taken antibiotics within 3 months of plaque sampling.
All dental plaque samples were collected using a sterile sickle scaler, and each sample was immediately deposited into a vial containing 1 ml pre-reduced anaerobic transfer medium (Anaerobe Systems, Morgan Hill, CA, USA). […] After 24 h of peptide treatment, absorbance at 600 nm was measured using a microtiter plate reader (Bio-Tek Instruments, Winooski, VT, USA). Plaque sample #311 was challenging in the planktonic state and, additionally, it formed the highest adherent biofilm using the Crystal Violet assay as measured by Dr. Robert S. Jones lab (data not shown). […]

#311 plaque biofilm [2] = test: Live/dead viability assay of plaque biofilms on peptide-coated HA discs; format: cell-based, plaque bacteria (human subject)
Protocol: Hydroxyapatite (HA) discs (9.65 mm diameter by 1.52 mm thickness; Clarkson Chromatography Products, Williamsport, PA, USA) were sterilized by autoclaving to be used as plaque biofilm substrates. Both sides of each disc were etched by 32% phosphoric acid gel (Scotchbond™ Universal Etchant, 3M, St. Paul, MN, USA) for 15 s followed by 10 s water-rinse and 10 s air-dry. The discs were coated, incubated with a thin layer of peptide solution at 37 °C for 1 min, by 1 mg/ml of either D-GL13K or 1018 or DJK2 followed by 60 s air-dry. The control discs were etched, but were not coated with peptides. All samples were subject to ultrasonication in water bath for 15 min to remove any unattached peptides. X-ray Photoelectron Spectroscopy (XPS; SSX-100, Surface Science Laboratories; Al Kα X-ray, 1 mm spot-size, 35° take-off angle) was used to detect the atomic composition of the coated surfaces. […]
Working solution of fluorescent stains (L7012, LIVE/DEAD BacLight Bacterial Viability Kit, ThermoFisher Scientific, Waltham, MA, USA) was prepared by adding 3 μl of SYTO® 9 (live cell stain) and 3 μl of Propidium iodide (PI, dead cell stain) to 1 ml of sterilized Milli-Q® ultrapure water. […] The regrown biofilms were re-assessed using the same Live/Dead assay.

[3] = tested on: plaque biofilm microbial community; test: 16S rRNA gene sequencing of plaque biofilm community on AAMPs-coated HA discs; format: cell-based, plaque bacteria (human subject)
Protocol: PMA treatment was conducted for selective detection of viable bacteria. Prior to DNA extraction, the collected 1ml of bacterial cells was sub-divided into 0.5ml with PMA and the other 0.5ml without PMA treatment for each sample for fulfilling a pairs-matched statistical design (S1 Fig in S1 File). PMA was added to the assigned samples for a final concentration of 50 μM. The samples were incubated in the dark for 10 minutes on a shaker at room temperature. The samples were exposed to a PMA-Lite LED photolysis device light (Biotium, Fremont, CA, USA) to cross-link PMA to DNA for 15 minutes. Cells were pelleted by centrifuging at 5000x g for 10 minutes in preparation for genomic DNA extraction.
Genomic DNA was extracted from all samples; i.e., PMA and non-PMA treated bacteria. The protocol amended from Epicentre MasterPure™ DNA Purification Kit and Epicentre MasterPure™ Gram Positive DNA Purification Kit was followed (http://homings.forsyth.org/DNA%20Isolation%20Protocol.pdf, last access 03/31/2020).
The extracted DNA was submitted to the University of Minnesota Genomics Center for dual-indexed 16S rRNA gene amplicon sequencing using the V3-V4 region on the Illumina MiSeq platform 300PE.
Primers where removed with FilterandTrim, paired reads were merged with mergePairs, Bimeras where removed in with removeBimeraDenovo, and Silva version 132 was used for taxonomy identification. Sequences with a length < 251 and > 255 were removed as well as sequences with a total read count across all samples equal to 1. Further analysis of the ASV table was performed in R with the vegan, reshape2, ggplot2, grid, gridExtra, plyr, dplyr packages. The alpha diversity indices of Shannon, Simpson, Inverse Simpson (InvSympson) were calculated at 97% identity. Beta diversity analysis was performed by principal coordinates analysis (PCoA) based on Bray-Curtis distances at the Operational Taxonomic Unit (OTU) level. […]

[4] = tested on: plaque biofilm along dentin-composite interface; test: Multiphoton live/dead bioimaging of plaque biofilm along dentin-composite interfacial gap; format: cell-based, plaque bacteria (human subject); bovine dentin; conditions: D-GL13K-coated dentin
Description: Roots of bovine teeth were used to prepare restored dentin-composite discs (Fig 1). After the crowns and apical thirds of each tooth were cut off, the root canals were enlarged to 2 mm in diameter, using 1.9-mm diameter fiber post drills (RelyX™ Fiber Post, 3M, St. Paul, MN, USA). The outer surface of the roots was trimmed down to 5 mm in diameter using a lathe to remove cementum and external layers of dentin. The obtained dentin tubes (5 mm in outer diameter and 2 mm in inner diameter) were water rinsed and stored in 0.5 chloramine T solution at 4 °C until the restorative procedures were performed. […]
Multiphoton images were acquired in a Multiphoton upright microscope equipped with an A1R laser scan head (Nikon FN1, Tokyo, Japan). […] Multiphoton excitation fluorescence was collected in the epi direction in the green (470–550) and orange-red (570–640) channels. […] Images were compiled and analyzed with NIS Elements software (Version 4.11.0, Nikon, Tokyo, Japan).
Quantification of red and green cells was done by standard co-localization analysis using Fiji image processing package. The percentage of red cells, which is usually associated to dead cells was calculated as: deadcells%=(totalvolumeofredcells/totalvolumeofcells)x100

#311 plaque sample = conditions: cultures of highly adherent #311 plaque sample; several batches; n = 3; Fig 2C; cited from earlier work
Protocol: (§1) MICs of D-GL13K against cultures of all 10 plaque biofilm samples were in the range 1–4 μg/ml (Fig 2A). […] Potency of the rest of AAMPs candidates was tested against cultures of the highly adherent #311 sample. […] The controls, scrambled amino acid versions of D- ...

#311 plaque biofilm [5] = conditions: Fig 2B, cited from earlier work
Protocol: as §1, with “However, biofilms show increased resistance to antimicrobial agents than suspension cultures.” for “The controls, scrambled amino acid versions of D- ...”

Compound	MIC [1] [µg/mL]	live/dead assay, effect on bacteria (#311 plaque biofilm [2]; D-GL13K-coated HA discs, 48 h biofilm growth)	antibiofilm activity of challenged coatings (#311 plaque biofilm [2]; coating challenged by 45 min ultrasonication or 45 min 30% acetic acid (pH 2.4), biofilms regrown 5 and 15 days)	bacterial community richness (Shannon index) compared to controls ([3]; 48-h biofilm on coated HA discs, genus level)	abundance of less abundant taxa Actinomyces and Gemella compared to controls ([3]; ANCOM, coated HA discs)	number and relative abundance of Streptococcus and Veillonella combined versus controls ([3]; Shannon, Simpson, InvSimpson indices, coated HA discs)	antibiofilm potency on 18-day-old interfacial plaque biofilm ([4]; 18-day-old biofilm, 3D rendering)	Percentage of dead cells ([4]; interfacial 9-day-old biofilm, average ± SD, n=6, control 31.5%± 8%, p = 0.018)	MIC (#311 plaque sample) [µg/mL]	inhibition of #311 plaque biofilm (#311 plaque biofilm [5]; 25 μg/ml D-GL13K, 6-day-old biofilm)	suppression of biofilm biovolume compared to controls (#311 plaque biofilm [5]; highly adherent plaque biofilm) [%]
CC[C@@H](C)[C@@H](NC(=O)[C@@H](CCCCN)NC(=O)CN)C(=O)N[C@@H](C(=O)N[C@H](CCCCN)C(=O)N[C@H](CC(C)C)C(=O)N[C@H](CCCCN)C(=O)N[C@H](C)C(=O)N[C@H](CO)C(=O)N[C@H](CC(C)C)C(=O)N[C@H](CCCCN)C(=O)N[C@H](CC(C)C)C(=O)N[C@H](CC(C)C)C(N)=O)[C@H](C)CC [D-GL13K] (H-G[dK][dI][dI][dK][dL][dK][dA][dS][dL][dK][dL][dL]-NH2; N-terminus and C-terminus assumed)	1 to 4	uniform and marked loss of the integrity of bacterial membranes	sustained antibiofilm activity	significantly reduced	significant reduction	significant reduction	maintained their antibiofilm potency	60% ± 10%	1 to 2	around 4 fold	> 70
L-GL13K: antimicrobial amphipathic peptide GL13K, L-amino acids (GKIIKLKASLKLL; not fully specified (C-terminus))	–	–	–	–	–	–	–	–	8	–	–
